Source: US11098010B2 (priority 2017, dated 2021)
Where a name gives a salt, the structure may show the parent alone.

tested on: HBV rcDNA in HepDE19 cells; test: HepDE19 assay with bDNA quantitation of HBV rcDNA; assay type: cell-based, hepatitis B virus (HBV); conditions: HepDE19 cells, inhibition of rcDNA formation, 7 day incubation, top concentration 25 μM; read-out: DE-19 bDNA EC50

Going from `CO[C@@H]1Cc2c(C(=O)Nc3ccc(F)c(Cl)c3)ccc(F)c2[C@H]1NC(=O)OCc1ccccn1` [Compound 178, O-Pyridin-2-ylmethyl, N-((1R,2R)-4-((3-chloro-4-fluorophenyl)carbamoyl)-7-fluoro-2-methoxy-2,3-dihydro-1H-inden-1-yl) carbamate] to `O=C(NC1c2c(F)ccc(C(=O)Nc3ccc(F)c(Cl)c3)c2CC1(F)F)OCc1ccccn1` (stereo not shown) [Compound 220, O-pyridin-2-ylmethyl, N-(4-((3-chloro-4-fluorophenyl)carbamoyl)-2,2,7-trifluoro-2,3-dihydro-1H-inden-1-yl) carbamate], the EC50 rises from 0.04 µM to 10 µM (250-fold). The first is the more potent here.

First: CC1(NC(=O)OCc2ccccn2)CCc2c(C(=O)Nc3ccc(F)c(Cl)c3)ccc(F)c21 (stereo not shown) [Compound 225, O-Pyridin-2-ylmethyl, N-(4-((3-chloro-4-fluorophenyl)carbamoyl)-7-fluoro-1-methyl-2,3-dihydro-1H-inden-1-yl) carbamate]
Second: O=C1NC(=O)C2(CCc3c(C(=O)Nc4ccc(F)c(Cl)c4)ccc(F)c32)N1 (single isomer, unassigned) [Compound 257, N-(3-chloro-4-fluoro-phenyl)-7′-fluoro-2,5-dioxo-spiro[imidazolidine-4,1′-indane]-4′-carboxamide]
The EC50 of the first is lower: 2 µM for the first, > 25 µM for the second.

same assay, conditions: Hepatitis B virus, HepDE19, 168 h, HepDE19 cells, inhibition of rcDNA formation, 7 day incubation, top concentration 25 μM; read-out: DE-19 bDNA EC50

In order of falling EC50:
1. CC(C)(C)[S@@+]([O-])N[C@H]1CCc2c(C(=O)Nc3ccc(F)c(Cl)c3)ccc(F)c21 [Compound 281, (S)-1-(((R)-tert-Butylsulfinyl)amino)-N-(3-chloro-4-fluorophenyl)-7-fluoro-2,3-dihydro-1H-indene-4-carboxamide]  4.4 µM
2. O=C(OCc1ccccn1)O[C@H]1CCc2c(C(=O)Nc3ccc(F)c(Cl)c3)ccc(F)c21 [Compound 90, (S)-4-((3-Chloro-4-fluorophenyl)carbamoyl)-7-fluoro-2,3-dihydro-1H-inden-1-yl (pyridin-2-ylmethyl) carbonate]  1.9 µM
3. O=C(Nc1ccc(F)c(Cl)c1)c1ccc(F)c2c1CCC2=O [Compound 251, N-(3-Chloro-4-fluorophenyl)-7-fluoro-1-oxo-2,3-dihydro-1H-indene-4-carboxamide]  0.55 µM
4. O=C(Nc1ccc(F)c(Cl)c1)c1ccc(F)c2c1CC[C@@H]2NS(=O)(=O)C1CCCCC1 [Compound 240, (S)—N-(3-Chloro-4-fluorophenyl)-1-(cyclohexanesulfonamido)-7-fluoro-2,3-dihydro-1H-indene-4-carboxamide]  0.51 µM
5. Cc1cc(NC(=O)c2ccc(F)c3c2OCC3NC(=O)OCc2ccccn2)ccc1F (single isomer, unassigned) [Compound 206, O-Pyridin-2-ylmethyl, N-(4-fluoro-7-((4-fluoro-3-methylphenyl)carbamoyl)-2,3-dihydrobenzofuran-3-yl)carbamate]  0.41 µM
6. COC(=O)NC1c2c(F)ccc(C(=O)Nc3ccc(F)c(Cl)c3)c2CC1OC (stereo not shown) [Compound 236, O-methyl, N-(4-((3-chloro-4-fluorophenyl)carbamoyl)-7-fluoro-2-methoxy-2,3-dihydro-1H-inden-1-yl)carbamate]  0.34 µM
7. Cn1ccc(CCC(=O)N[C@H]2CCc3c(C(=O)Nc4ccc(F)c(Cl)c4)ccc(F)c32)n1 [Compound 171, (S)—N-(3-Chloro-4-fluorophenyl)-7-fluoro-1-(3-(1-methyl-1H-pyrazol-3-yl)propanamido)-2,3-dihydro-1H-indene-4-carboxamide]  0.13 µM

same assay, conditions: Hepatitis B virus, HepDE19, 168 h, read-out: DE-19 bDNA EC50 (μM), HepDE19 cells, inhibition of rcDNA formation, 7 day incubation, top concentration 25 μM

In order of falling EC50:
1. O=C(N[C@H]1CCc2c(C(=O)Nc3ccc(F)c(Cl)c3)ccc(F)c21)OC[C@@H]1CCCN1 [Compound 69, O—(S)-Pyrrolidin-2-ylmethyl, N—((S)-4-((3-chloro-4-fluorophenyl)carbamoyl)-7-fluoro-2,3-dihydro-1H-inden-1-yl) carbamate Hydrochloride]  5.1 µM
2. O=C(N[C@H]1CCc2c(C(=O)Nc3ccc(F)c(Cl)c3)ccc(F)c21)OCCOc1ccccc1 [Compound 99, O-2-Phenoxyethyl, N—(S)-(4-((3-chloro-4-fluorophenyl)carbamoyl)-7-fluoro-2,3-dihydro-1H-inden-1-yl) carbamate]  1.22 µM
3. O=C(N[C@H]1CCc2c(C(=O)Nc3ccc(F)c(Cl)c3)ccc(F)c21)OCCN1CCCCC1 [Compound 147, O-2-(Piperidin-1-yl)ethyl, N—(S)-(4-((3-chloro-4-fluorophenyl)carbamoyl)-7-fluoro-2,3-dihydro-1H-inden-1-yl) carbamate]  1.1 µM
4. COC(=O)NC1CSc2c(C(=O)Nc3ccc(F)c(Cl)c3)cccc21 (stereo not shown) [Compound 37, O-Methyl, N-(7-((3-chloro-4-fluorophenyl)carbamoyl)-2,3-dihydrobenzo[b]thiophen-3-yl) carbamate]  0.95 µM
5. CNC(=O)N[C@H]1CCc2c(C(=O)Nc3ccc(F)c(C)c3)ccc(F)c21 [Compound 12, (S)-7-Fluoro-N-(4-fluoro-3-methylphenyl)-1-(3-methylureido)-2,3-dihydro-1H-indene-4-carboxamide]  0.38 µM
6. COCC(=O)N1CCC(COC(=O)N[C@H]2CCc3c(C(=O)Nc4ccc(F)c(Cl)c4)ccc(F)c32)CC1 [Compound 185, O-(1-(2-Methoxyacetyl)piperidin-4-yl)methyl, N—(S)-(4-((3-chloro-4-fluorophenyl)carbamoyl)-7-fluoro-2,3-dihydro-1H-inden-1-yl) carbamate]  0.37 µM
7. O=C1CC(COC(=O)N[C@H]2CCc3c(C(=O)Nc4ccc(F)c(Cl)c4)ccc(F)c32)N1 (stereo partly drawn) [Compound 213, O-(4-Oxoazetidin-2-yl)methyl, N—((S)-4-((3-chloro-4-fluorophenyl)carbamoyl)-7-fluoro-2,3-dihydro-1H-inden-1-yl) carbamate]  0.33 µM
8. CNC(=O)N[C@H]1CCc2c(C(=O)Nc3ccc(F)c(Cl)c3)ccc(F)c21 [Compound 20, (S)—N-(3-Chloro-4-fluorophenyl)-7-fluoro-1-(3-methylureido)-2,3-dihydro-1H-indene-4-carboxamide]  0.32 µM
9. O=C1CCC[C@H](COC(=O)N[C@H]2CCc3c(C(=O)Nc4ccc(F)c(Cl)c4)ccc(F)c32)N1 [Compound 198, O—((R)-6-Oxopiperidin-2-yl)methyl, N—((S)-4-((3-chloro-4-fluorophenyl)carbamoyl)-7-fluoro-2,3-dihydro-1H-inden-1-yl) carbamate]  0.22 µM
10. O=C(N[C@H]1CCc2c(C(=O)Nc3ccc(F)c(Cl)c3)ccc(F)c21)OCCc1cn[nH]c1 [Compound 110, O-2-(1H-Pyrazol-4-yl)ethyl, N—(S)-(4-((3-chloro-4-fluorophenyl)carbamoyl)-7-fluoro-2,3-dihydro-1H-inden-1-yl) carbamate]  0.2 µM
11. O=C(N[C@H]1CCc2c(C(=O)Nc3ccc(F)c(Cl)c3)ccc(F)c21)OC[C@@H]1COCCN1 [Compound 180, O—((S)-Morpholin-3-yl)methyl, N—((S)-4-((3-chloro-4-fluorophenyl)carbamoyl)-7-fluoro-2,3-dihydro-1H-inden-1-yl) carbamate Hydrochloride]  0.2 µM
12. O=C(N[C@H]1CCc2c(C(=O)Nc3ccc(F)c(Cl)c3)ccc(F)c21)OCCn1cccn1 [Compound 133, O-2-(1H-Pyrazol-1-yl)ethyl, N—(S)-(4-((3-chloro-4-fluorophenyl)carbamoyl)-7-fluoro-2,3-dihydro-1H-inden-1-yl) carbamate]  0.15 µM

same assay, conditions: read-out: DE-19 bDNA EC50; HepDE19 cells, inhibition of rcDNA formation, 7 day incubation, top concentration 25 μM

In order of rising EC50:
1. COC(=O)NC1CSc2c(C(=O)Nc3ccc(F)c(F)c3)ccc(F)c21 (stereo not shown) [Compound 55, O-Methyl, N-(7-((3,4-difluorophenyl)carbamoyl)-4-fluoro-2,3-dihydrobenzo[b]thiophen-3-yl) carbamate]  1.2 µM
2. COC(=O)NC1COc2c(C(=O)Nc3ccc(F)c(F)c3)cccc21 (stereo not shown) [Compound 6, O-Methyl, N-(7-((3,4-difluorophenyl)carbamoyl)-2,3-dihydrobenzofuran-3-yl) carbamate]  1.3 µM
